Laboratory results published in patent publication US20260201008A1, “SECRETIN-DERIVED GLP1R SELECTIVE AGONISTS” (GUBRA A/S, priority 2023, published 2026).
Like-named read-outs stand apart in the source and are kept apart here. Numbered stars: 1 amine (or outer) side, 2 acyl side, 3 side chain; on linkers, the order of the positions; unused ones are H or OH. Square brackets hold non-standard residues; d marks the D form. Side chains are listed from the residue outwards. Peptide text beside a SMILES is read from it. * marks the point of attachment. C20 diacid = O=C(O)CCCCCCCCCCCCCCCCCCC(=O)*; γGlu = O=C(O)[C@H](CCC(=O)[*:2])N[*:1]; AEEA = NCCOCCOCC(=O)O; Aib = CC(C)(N)C(=O)O

How the values were obtained:
[1] = target: SCTR (Homo sapiens, UniProt P47872); assay: hSCTR potency, cAMP accumulation in CHO-K1 cells stably overexpressing hSCTR; assay type: cell-based; design: alternatively Euroscreen ES-712-AF; FAST-0161L; host or cells: CHO-K1
How it was run: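 Potency reflects cAMP accumulation after 30 min agonist exposure at room temperature in hSCTR-expressing CHO-K1 cells, with 0.5 mM IBMX present to block phosphodiesterase. EC50 was derived by nonlinear regression.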

[2] = target: GLP1R (Homo sapiens, UniProt P43220); assay: hGLP1R potency, cAMP accumulation in CHO-K1 cells stably overexpressing hGLP1R; assay type: cell-based; design: host or cells: CHO-K1; conditions: for SCTR EC50/GLP1R EC50 ratio: selectivity for hGLP1R over hSCTR, cAMP accumulation in CHO-K1 cells; for Selectivity: SCTR EC50/GLP1R EC50 ratio
How it was run: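 Potency reflects cAMP accumulation measured by time-resolved fluorescence energy transfer after a 30 min room-temperature stimulation in IBMX-containing (0.5 mM) DPBS with casein. Purified peptides were tested in duplicate over eleven threefold dilutions, and EC50 was obtained from sigmoid concentration-response fitting.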

[3] = Fibril formation of crude library peptides (Thioflavin T); assay type: physicochemical; design: key: average ThT fluorescence emission at 480 nm (ex 450 nm), raw units; conditions: Physical stability of peptides
How it was run: (§1)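 Values reflect mean ThT emission (ex 450, em 480 nm) over 72 h at 40° C, read every 10 min after 5 min shaking at 700 rpm, plus a single initial absorbance at 600 nm for turbidity. Peptides were at 267 μM, pH 4.0 acetate or pH 7.0 phosphate (50 mM), with 4 μM ThT.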

[4] = Turbidity of crude library peptides (absorbance at 600 nm); assay type: physicochemical; conditions: Physical stability of peptides
How it was run: as §1

[5] = cAMP accumulation, CHO-K1 cells overexpressing hSCTR, read-out: hSCTR pEC50 (converted)
[6] = cAMP accumulation, CHO-K1 cells overexpressing hGLP1R, read-out: hGLP1R pEC50 (converted)

Sequence of SCTR (P47872 23-440): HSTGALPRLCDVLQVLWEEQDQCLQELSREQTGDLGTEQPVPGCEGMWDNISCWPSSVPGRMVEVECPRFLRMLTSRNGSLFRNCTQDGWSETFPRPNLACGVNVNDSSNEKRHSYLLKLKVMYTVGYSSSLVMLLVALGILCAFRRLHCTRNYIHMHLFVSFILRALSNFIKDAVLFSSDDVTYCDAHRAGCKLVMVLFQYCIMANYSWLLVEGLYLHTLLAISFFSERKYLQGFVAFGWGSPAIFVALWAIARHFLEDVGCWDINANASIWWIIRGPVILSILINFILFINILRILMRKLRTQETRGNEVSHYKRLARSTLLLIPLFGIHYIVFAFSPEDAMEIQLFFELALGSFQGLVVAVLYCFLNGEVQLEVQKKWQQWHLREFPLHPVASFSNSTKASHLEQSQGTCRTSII
Sequence of GLP1R (P43220 24-463): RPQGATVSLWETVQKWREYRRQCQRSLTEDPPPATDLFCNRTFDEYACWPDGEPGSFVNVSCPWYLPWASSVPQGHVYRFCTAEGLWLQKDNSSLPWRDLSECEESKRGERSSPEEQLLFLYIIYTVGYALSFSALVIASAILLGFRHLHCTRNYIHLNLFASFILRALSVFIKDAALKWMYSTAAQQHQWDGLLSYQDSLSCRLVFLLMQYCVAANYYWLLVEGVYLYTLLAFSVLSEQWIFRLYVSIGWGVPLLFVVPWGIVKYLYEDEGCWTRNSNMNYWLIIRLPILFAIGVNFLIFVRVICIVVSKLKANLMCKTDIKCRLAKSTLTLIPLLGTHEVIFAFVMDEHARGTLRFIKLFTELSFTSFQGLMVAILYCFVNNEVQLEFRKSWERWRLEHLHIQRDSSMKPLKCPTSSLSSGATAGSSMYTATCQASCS

Row | EC50 [1, 5] [nM] | EC50 [2, 6] [nM] | SCTR EC50/GLP1R EC50 ratio [2] | Fibril formation [3] | Turbidity (pH 7) [4] | EC50 ([1]; cAMP accumulation, CHO-K1 cells overexpressing hSCTR, read-out: pEC50 hSCTR (converted)) [nM] | EC50 ([2]; cAMP accumulation, CHO-K1 cells overexpressing hGLP1R, read-out: pEC50 hGLPR1 (converted)) [nM] | SMILES | Selectivity [2] | EC50 [1] [nM] | EC50 [2] [nM]
1 | 10000 | 0.00794 | 1181272 | 3646 | 0.08 |  |  | CC(C)C[C@H](NC(=O)[C@H](Cc1ccccc1)NC(=O)[C@H](CCCNC(=N)N)NC(=O)[C@H](CCC(N)=O)NC(=O)[C@H](CC(C)C)NC(=O)C(C)(C)NC(=O)[C@H](C)NC(=O)[C@H](CCC(=O)O)NC(=O)[C@H](CCC(=O)O)NC(=O)[C@H](CCCCNC(=O)COCCOCCNC(=O)COCCOCCNC(=O)CC[C@H](NC(=O)CCCCCCCCCCCCCCCCCCC(=O)O)C(=O)O)NC(=O)[C@H](CC(C)C)NC(=O)[C@H](Cc1ccc(O)cc1)NC(=O)[C@H](CO)NC(=O)C(C)(C)NC(=O)[C@H](CC(=O)O)NC(=O)[C@H](CO)NC(=O)[C@@H](NC(=O)[C@H](Cc1ccccc1)NC(=O)[C@@H](NC(=O)CNC(=O)[C@H](CCC(=O)O)NC(=O)C(C)(C)NC(=O)[C@@H](N)Cc1c[nH]cn1)[C@@H](C)O)[C@@H](C)O)C(=O)N[C@@H](CCC(=O)O)C(=O)N[C@@H](Cc1c[nH]cn1)C(=O)N[C@@H](CC(C)C)C(=O)N[C@H](C(N)=O)C(C)C [compound 103] (H-H[Aib]EGTFTSD[Aib]SYLK([AEEA-AEEA-γGlu-C20 diacid])EEA[Aib]LQRFLEHLV-NH2) |  |  | 
2 |  |  |  | 13939 | 0.09 | 126 | 0.0316 | CC(C)C[C@H](NC(=O)[C@H](Cc1ccccc1)NC(=O)[C@H](CCCNC(=N)N)NC(=O)[C@H](CCC(N)=O)NC(=O)[C@H](CO)NC(=O)[C@H](C)NC(=O)[C@H](C)NC(=O)C(C)(C)NC(=O)[C@H](CCC(=O)O)NC(=O)[C@H](CCCCNC(=O)COCCOCCNC(=O)COCCOCCNC(=O)CC[C@H](NC(=O)CCCCCCCCCCCCCCCCCCC(=O)O)C(=O)O)NC(=O)[C@H](CC(C)C)NC(=O)[C@H](CCCNC(=N)N)NC(=O)[C@H](CO)NC(=O)[C@@H](NC(=O)[C@H](CC(=O)O)NC(=O)[C@H](CO)NC(=O)[C@@H](NC(=O)[C@H](Cc1ccccc1)NC(=O)[C@@H](NC(=O)CNC(=O)[C@H](CCC(=O)O)NC(=O)C(C)(C)NC(=O)[C@@H](N)Cc1c[nH]cn1)[C@@H](C)O)[C@@H](C)O)C(C)C)C(=O)N[C@@H](CCC(=O)O)C(=O)N[C@@H](Cc1c[nH]cn1)C(=O)N[C@@H](CC(C)C)C(=O)N[C@H](C(N)=O)C(C)C [compound 59] (H-H[Aib]EGTFTSDVSRLK([AEEA-AEEA-γGlu-C20 diacid])E[Aib]AASQRFLEHLV-NH2) | 4314 |  | 
3 | 15.8 | 0.0398 | 459 | 6433 | 0.48 |  |  | CC[C@H](C)[C@H](NC(=O)[C@H](Cc1ccccc1)NC(=O)[C@H](CCCNC(=N)N)NC(=O)[C@H](CCC(N)=O)NC(=O)[C@H](CC(C)C)NC(=O)[C@H](C)NC(=O)[C@H](C)NC(=O)CNC(=O)[C@H](CCC(=O)O)NC(=O)[C@H](CC(C)C)NC(=O)[C@H](CC(C)C)NC(=O)[C@H](CCCNC(=N)N)NC(=O)[C@H](CO)NC(=O)[C@@H](NC(=O)[C@H](CC(=O)O)NC(=O)[C@H](CO)NC(=O)[C@@H](NC(=O)[C@H](Cc1ccccc1)NC(=O)[C@@H](NC(=O)CNC(=O)[C@H](CCC(=O)O)NC(=O)C(C)(C)NC(=O)[C@@H](N)Cc1c[nH]cn1)[C@@H](C)O)[C@@H](C)O)[C@@H](C)CC)C(=O)N[C@@H](CCC(N)=O)C(=O)N[C@@H](Cc1c[nH]c2ccccc12)C(=O)N[C@@H](CC(C)C)C(=O)N[C@H](C(N)=O)C(C)C [compound 115] (H-H[Aib]EGTFTSDISRLLEGAALQRFIQWLV-NH2) |  |  | 
4 | 251 | 0.02 | 11362 | 4789 | 0.08 |  |  | CC(C)C[C@H](NC(=O)[C@H](Cc1ccccc1)NC(=O)[C@H](CCCNC(=N)N)NC(=O)[C@H](CCC(N)=O)NC(=O)[C@H](CC(C)C)NC(=O)C(C)(C)NC(=O)[C@H](C)NC(=O)[C@H](CCC(=O)O)NC(=O)[C@H](CCC(=O)O)NC(=O)[C@H](Cc1c[nH]cn1)NC(=O)[C@H](CC(C)C)NC(=O)[C@H](Cc1ccc(O)cc1)NC(=O)[C@H](CO)NC(=O)[C@@H](NC(=O)[C@H](CC(=O)O)NC(=O)[C@H](CO)NC(=O)[C@@H](NC(=O)[C@H](Cc1ccccc1)NC(=O)[C@@H](NC(=O)CNC(=O)[C@H](CCC(=O)O)NC(=O)C(C)(C)NC(=O)[C@@H](N)Cc1c[nH]cn1)[C@@H](C)O)[C@@H](C)O)C(C)C)C(=O)N[C@@H](CCC(=O)O)C(=O)N[C@@H](CCCCNC(=O)COCCOCCNC(=O)COCCOCCNC(=O)CC[C@H](NC(=O)CCCCCCCCCCCCCCCCCCC(=O)O)C(=O)O)C(=O)N[C@@H](CC(C)C)C(=O)N[C@H](C(N)=O)C(C)C [compound 164] (H-H[Aib]EGTFTSDVSYLHEEA[Aib]LQRFLEK([AEEA-AEEA-γGlu-C20 diacid])LV-NH2) |  |  | 
5 | 79.4 | 0.01 | 8851 | 6284 | 0.08 |  |  | CC(C)C[C@H](NC(=O)[C@H](Cc1ccccc1)NC(=O)[C@H](CCCNC(=N)N)NC(=O)[C@H](CCC(N)=O)NC(=O)[C@@H](NC(=O)[C@H](C)NC(=O)[C@H](C)NC(=O)[C@H](CCC(=O)O)NC(=O)[C@H](CCC(=O)O)NC(=O)[C@H](CCCCNC(=O)COCCOCCNC(=O)COCCOCCNC(=O)CC[C@H](NC(=O)CCCCCCCCCCCCCCCCCCC(=O)O)C(=O)O)NC(=O)[C@H](CC(C)C)NC(=O)[C@@H](NC(=O)[C@H](CO)NC(=O)[C@@H](NC(=O)[C@H](CC(=O)O)NC(=O)[C@H](CO)NC(=O)[C@@H](NC(=O)[C@H](Cc1ccccc1)NC(=O)[C@@H](NC(=O)CNC(=O)[C@H](CCC(=O)O)NC(=O)C(C)(C)NC(=O)[C@@H](N)Cc1c[nH]cn1)[C@@H](C)O)[C@@H](C)O)C(C)C)[C@@H](C)O)[C@@H](C)O)C(=O)N[C@@H](CCC(=O)O)C(=O)N[C@@H](Cc1c[nH]cn1)C(=O)N[C@@H](CC(C)C)C(=O)N[C@H](C(N)=O)C(C)C [compound 102] (H-H[Aib]EGTFTSDVSTLK([AEEA-AEEA-γGlu-C20 diacid])EEAATQRFLEHLV-NH2) |  |  | 

Row | SMILES | EC50 [1, 5] [nM] | EC50 [2, 6] [nM] | SCTR EC50/GLP1R EC50 ratio [2] | Fibril formation [3] | Turbidity (pH 7) [4] | EC50 ([1]; cAMP accumulation, CHO-K1 cells overexpressing hSCTR, read-out: pEC50 hSCTR (converted)) [nM] | EC50 ([2]; cAMP accumulation, CHO-K1 cells overexpressing hGLP1R, read-out: pEC50 hGLPR1 (converted)) [nM] | Selectivity [2] | EC50 [1] [nM] | EC50 [2] [nM]
6 | CC(C)C[C@H](NC(=O)[C@H](CCC(=O)O)NC(=O)[C@H](CCCCNC(=O)COCCOCCNC(=O)COCCOCCNC(=O)CC[C@H](NC(=O)CCCCCCCCCCCCCCCCCCC(=O)O)C(=O)O)NC(=O)[C@H](CC(C)C)NC(=O)[C@@H](NC(=O)[C@H](CO)NC(=O)[C@@H](NC(=O)[C@H](CC(=O)O)NC(=O)[C@H](CO)NC(=O)[C@@H](NC(=O)[C@H](Cc1ccccc1)NC(=O)[C@@H](NC(=O)CNC(=O)[C@H](CCC(=O)O)NC(=O)C(C)(C)NC(=O)[C@@H](N)Cc1c[nH]cn1)[C@@H](C)O)[C@@H](C)O)C(C)C)[C@@H](C)O)C(=O)N[C@@H](C)C(=O)N[C@@H](C)C(=O)N[C@@H](C)C(=O)N[C@@H](CCC(N)=O)C(=O)N[C@@H](CCCNC(=N)N)C(=O)N[C@@H](Cc1ccccc1)C(=O)N[C@@H](CC(C)C)C(=O)N[C@@H](CCC(=O)O)C(=O)N[C@@H](Cc1c[nH]cn1)C(=O)N[C@@H](CC(C)C)C(=O)N[C@H](C(N)=O)C(C)C [compound 11] (H-H[Aib]EGTFTSDVSTLK([AEEA-AEEA-γGlu-C20 diacid])ELAAAQRFLEHLV-NH2) |  |  |  | 7854 | 0.08 |  |  | 11347 | 631 | 0.0501
